{"source": "patent US12371454B2", "about": "“Cyclic peptide compound having Kras inhibitory action” (priority 2019, dated 2025)", "note": "Starred links: 1 amine or outer side, 2 acyl side, 3 side chain; linkers in the order of their positions; H or OH if unused. Positions of bridges follow the written chain, without caps; N, C: chain ends. Non-standard residues stand in square brackets, D forms with d. Residues, ends and D or L forms follow the SMILES beside them. *: point of attachment. NMeAbu(3,3-F2-piperidino) = CN[C@@H](CCN1CCCC(F)(F)C1)C(=O)O; hPhe(3-Cl-4-CF3) = N[C@@H](CCc1ccc(C(F)(F)F)c(Cl)c1)C(=O)O; NMePhe(4-CF3) = CN[C@@H](Cc1ccc(C(F)(F)F)cc1)C(=O)O; X71 = O=C([C@H](Cc1cc(Cl)cc(I)c1)N[*:1])[*:2]; NMeAbu(4,4,4-F3) = CN[C@@H](CC(F)(F)F)C(=O)O; NMePhe(4-Me) = CN[C@@H](Cc1ccc(C)cc1)C(=O)O; X62 = O=C([C@H](Cc1cc(I)ccc1Br)N[*:1])[*:2]; NMeAla(cPent) = CN[C@@H](CC1CCCC1)C(=O)O; X10 = CC(C)=CC[C@H](N[*:1])C(=O)[*:2]; NMeY = CN[C@@H](Cc1ccc(O)cc1)C(=O)O; NMeCha = CN[C@@H](CC1CCCCC1)C(=O)O; Hyp = O=C(O)[C@@H]1C[C@@H](O)CN1; NMeChg = CN[C@H](C(=O)O)C1CCCCC1; NMeI = CC[C@H](C)[C@H](NC)C(=O)O; NMeD = CN[C@@H](CC(=O)O)C(=O)O; NMeL = CN[C@@H](CC(C)C)C(=O)O; NMeV = CN[C@H](C(=O)O)C(C)C; NMeAbu = CC[C@H](NC)C(=O)O; NMeA = CN[C@@H](C)C(=O)O; NMeAib = CNC(C)(C)C(=O)O; Nle = CCCC[C@H](N)C(=O)O; Piperidide = C1CCN(*)CC1; Pyrrolidide = C1CCN(*)C1; Ac5c = NC1(C(=O)O)CCCC1; Aze = O=C(O)[C@@H]1CCN1; X1 = FC1(F)CN(*)CC1(F)F; NPrGly = CCCNCC(=O)O; Sar = CNCC(=O)O"}
{"target": "T1, Kras and SOS1 (biotin-tagged human Kras loaded with GDP, His-tagged human SOS1) (Homo sapiens, UniProt P01116, G12D)", "T1 construct": "made in house; host or cells: E. coli (stated for Kras only)", "T1 sequence (P01116 1-188 isoform P01116-2 G12D)": "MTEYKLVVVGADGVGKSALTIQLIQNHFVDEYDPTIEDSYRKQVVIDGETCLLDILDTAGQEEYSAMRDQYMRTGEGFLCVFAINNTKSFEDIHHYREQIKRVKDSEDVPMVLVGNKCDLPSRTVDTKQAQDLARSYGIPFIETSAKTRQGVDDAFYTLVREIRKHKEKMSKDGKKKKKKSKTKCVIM", "assay": "Protein-protein interaction inhibition between Kras and SOS1 (KrasGl2D-SOS PPI) using AlphaScreen", "assay_type": "binding", "settings": "AlphaScreen; biotin-tagged human Kras loaded with GDP, His-tagged human SOS1; read-out: KRAS G12D-SOS PPI IC50", "procedure,_shortened": "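Donor beads (nickel) hold His-SOS1; acceptor beads (streptavidin) hold biotin-Kras bound to GDP. Signal measured at 520-620 nm following 680 nm excitation.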", "units": {"IC50": "nM"}}
{"smiles": "CCCN1CC(=O)N(C)[C@@H]([C@@H](C)CC)C(=O)N(C)[C@H](C(=O)N(C)C)CC(=O)N(C)[C@@H](CC(C)C)C(=O)N[C@@H]([C@@H](C)CC)C(=O)N(C)[C@@H](C)C(=O)N2CC[C@H]2C(=O)N(C)[C@@H](Cc2ccc(C)cc2)C(=O)N(C)CC(=O)N[C@@H](CCc2ccc(C(F)(F)F)c(Cl)c2)C(=O)N2CCC[C@H]2C1=O", "note": "[Compound 1131] ([NMeL]I[NMeA][Aze][NMePhe(4-Me)][Sar][hPhe(3-Cl-4-CF3)]P[NPrGly][NMeI][NMeD]-NMe2; lactam N-11)", "IC50": 13}
{"smiles": "CC(C)=CC[C@@H]1NC(=O)[C@H](CC(C)C)N(C)C(=O)C[C@@H](C(=O)N2CCCCC2)N(C)C(=O)[C@H](C2CCCCC2)N(C)C(=O)C2(CCCC2)NC(=O)[C@@H]2CCCN2C(=O)[C@H](CCc2ccc(C(F)(F)F)c(Cl)c2)NC(=O)CN(C)C(=O)[C@H](CC2CCCCC2)N(C)C(=O)CN(C)C(=O)CN(C)C1=O", "note": "[Compound 1134] ([NMeL][X10][Sar][Sar][NMeCha][Sar][hPhe(3-Cl-4-CF3)]P[Ac5c][NMeChg][NMeD]-Piperidide; lactam N-11)", "IC50": 6}
{"smiles": "CC[C@H](C)[C@@H]1NC(=O)[C@H](CC(C)C)N(C)C(=O)C[C@@H](C(=O)N(C)C)N(C)C(=O)[C@H]([C@@H](C)CC)N(C)C(=O)[C@H](C)NC(=O)[C@H](CCN2CCCC(F)(F)C2)N(C)C(=O)[C@H](CCc2ccc(C(F)(F)F)c(Cl)c2)NC(=O)CN(C)C(=O)[C@H](Cc2ccc(C)cc2)N(C)C(=O)[C@@H]2CCN2C(=O)[C@H](C)N(C)C1=O", "note": "[Compound 1135] ([NMeL]I[NMeA][Aze][NMePhe(4-Me)][Sar][hPhe(3-Cl-4-CF3)][NMeAbu(3,3-F2-piperidino)]A[NMeI][NMeD]-NMe2; lactam N-11)", "IC50": 5.8}
{"smiles": "CC[C@H](C)[C@@H]1NC(=O)[C@H](CC(C)C)N(C)C(=O)C[C@@H](C(=O)N2CC(F)(F)C(F)(F)C2)N(C)C(=O)[C@H](C(C)C)N(C)C(=O)C2(CCCC2)NC(=O)[C@@H]2CCCN2C(=O)[C@H](CCc2ccc(C(F)(F)F)c(Cl)c2)NC(=O)CN(C)C(=O)[C@H](CC2CCCCC2)N(C)C(=O)[C@@H]2CCN2C(=O)[C@H](C)N(C)C1=O", "note": "[Compound 1136] ([NMeL]I[NMeA][Aze][NMeCha][Sar][hPhe(3-Cl-4-CF3)]P[Ac5c][NMeV][NMeD]-X1; lactam N-11)", "IC50": 70}
{"smiles": "CCO[C@@H]1C[C@H]2C(=O)NC3(CCCC3)C(=O)N(C)[C@@H](C3CCCCC3)C(=O)N(C)[C@H](C(=O)N3CCCC3)CC(=O)N(C)[C@@H](CC(F)(F)F)C(=O)N[C@@H]([C@@H](C)CC)C(=O)N(C)CC(=O)N(C)CC(=O)N(C)[C@@H](Cc3ccc(C(F)(F)F)cc3)C(=O)N(C)CC(=O)N[C@@H](CCc3ccc(C(F)(F)F)c(Cl)c3)C(=O)N2C1", "note": "[Compound 1139] ([NMeAbu(4,4,4-F3)]I[Sar][Sar][NMePhe(4-CF3)][Sar][hPhe(3-Cl-4-CF3)][Hyp](Et)[Ac5c][NMeChg][NMeD]-Pyrrolidide; lactam N-11)", "IC50": 0.59}
{"smiles": "CC[C@H](C)[C@@H]1NC(=O)[C@H](CC2CCCC2)N(C)C(=O)C[C@@H](C(=O)N(C)C)N(C)C(=O)[C@H]([C@@H](C)CC)N(C)C(=O)C2(CCCC2)NC(=O)[C@@H]2CCCN2C(=O)[C@H](CCc2ccc(C(F)(F)F)c(Cl)c2)NC(=O)CN(C)C(=O)[C@H](Cc2ccc(C)cc2)N(C)C(=O)[C@@H]2CCN2C(=O)[C@H](C)NC1=O", "note": "[Compound 1141] ([NMeAla(cPent)]IA[Aze][NMePhe(4-Me)][Sar][hPhe(3-Cl-4-CF3)]P[Ac5c][NMeI][NMeD]-NMe2; lactam N-11)", "IC50": 0.97}
{"smiles": "CCCC[C@@H]1NC(=O)[C@H](Cc2cc(I)ccc2Br)NC(=O)CN(C)C(=O)[C@H](Cc2ccc(OC)cc2)N(C)C(=O)[C@@H]2CCN2C(=O)[C@H](C)N(C)C(=O)[C@H]([C@@H](C)CC)NC(=O)[C@H](CC)N(C)C(=O)C[C@@H](C(=O)N2CCCCC2)N(C)C(=O)[C@H](CC(C)C)NC(=O)C(C)(C)N(C)C1=O", "note": "[Compound 1155] ([NMeAbu]I[NMeA][Aze][NMeY](Me)[Sar][X62][Nle][NMeAib]L[NMeD]-Piperidide; lactam N-11)", "IC50": 170}
{"smiles": "CCCC[C@@H]1NC(=O)[C@H](Cc2cc(Cl)cc(I)c2)NC(=O)CN(C)C(=O)[C@H](Cc2ccc(OC)cc2)N(C)C(=O)[C@@H]2CCN2C(=O)[C@H](C)N(C)C(=O)[C@H]([C@@H](C)CC)NC(=O)[C@H](CC)N(C)C(=O)C[C@@H](C(=O)N2CCCCC2)N(C)C(=O)[C@H](CC(C)C)NC(=O)C(C)(C)N(C)C1=O", "note": "[Compound 1156] ([NMeAbu]I[NMeA][Aze][NMeY](Me)[Sar][X71][Nle][NMeAib]L[NMeD]-Piperidide; lactam N-11)", "IC50": 140}
{"smiles": "CC[C@H](C)[C@@H]1NC(=O)[C@H](CC(C)C)N(C)C(=O)C[C@@H](C(=O)N2CCCCC2)N(C)C(=O)[C@H](C2CCCCC2)N(C)C(=O)[C@H](C(C)C)NC(=O)[C@@H]2CCCN2C(=O)[C@H](CCc2ccc(C(F)(F)F)c(Cl)c2)NC(=O)CN(C)C(=O)[C@H](CC2CCCCC2)N(C)C(=O)CN(C)C(=O)CN(C)C1=O", "note": "[Compound 1157] ([NMeL]I[Sar][Sar][NMeCha][Sar][hPhe(3-Cl-4-CF3)]PV[NMeChg][NMeD]-Piperidide; lactam N-11)", "IC50": 1.6}
